Experimental findings from patent publication EP0744402B1, “POTASSIUM SALT OF BIPHENYLMETHANE DERIVATIVE AND MEDICINE CONTAINING THE SAME” (priority 1994, dated 1995) are described below.

SMILES strings stand for the structures. Counter-ions that a name gives are not always drawn.

For series [1], the system named is renal hypertensive rats. The series is described as follows: Antihypertensive action on renal hypertensive rats (invasive). The class given is in vivo, rat. The note with it: male SD renal hypertensive rats, mean blood pressure, orally 0.3 mg/kg, suspended in 0.5% carboxymethyl cellulose. From the text:
Antihypertensive action on renal hypertensive rats (invasive)
Renal hypertensive rats were each prepared by constricting the left renal artery of a male SD rat (age: 6 weeks old, body weight: 190-220 g) with a silver clip (inner diameter: 0.017 inch) under anesthesia. Antihypertensive action was studied employing the rats whose mean blood pressure arose to 150 mmHg or higher in 4-8 weeks after the constriction of the renal artery. On the day before the test, a cannula for measure of blood pressure was inserted into the femoral artery of each of the renal hypertensive rats under anesthesia and was allowed to remain in the artery. The rats were maintained on food and water ad libitum until immediately before the test was started. The cannula so inserted was connected to a blood pressure transducer and a mean blood pressure was recorded on a polygraph. After the blood pressure became stable, the test compound which was suspended in 0.5% carboxymethyl cellulose was orally administered to each of the rats at 0.3 mg/kg. In accordance with the following equation, a decreased rate of blood pressure (%) was calculated from the blood pressure values before and after the administration of the test compound.

The test system of series [2] is angiotensin II. The series is described as follows: Inhibition of the angiotensin II-induced blood pressure increase in conscious normotensive rats after oral administration (invasive). In kind it is in vivo, rat. The conditions noted are these: male SD rats; angiotensin II intravenously 0.1 µg/kg; test compound orally 1.0 mg/kg in 0.5% carboxymethyl cellulose. The procedure: On the day before the test, a cannula for the measurement of blood pressure and another cannula for the administration of a solution of angiotensin II (AII) in physiological saline (intravenously administered at 0.1 µg/kg) were inserted into the right femoral artery and the right femoral vein of each of the male SD rats (body weight: 200-350 g), respectively, under anesthesia. The rats were maintained on food and water ad libitum until immediately before the test was started. On the testing day, the former cannula so inserted was connected to a blood pressure transducer and the mean blood pressure was recorded on a polygraph. The solution of AII in physiological saline was then intravenously administered to each of the rats to raise its blood pressure. The blood-pressure raising response was repeated several times. […] In accordance with the following equation, an inhibitory rate (%) of blood pressure increase was calculated from the blood pressure increases before and after the administration of the test compound.

Series [3] is described as follows: Measurement of bioavailability in rat. In kind it is in vivo. The note with it: SD male rats, fasted overnight, 3 mg/kg intravenously (physiological saline) and orally (0.5% carboxymethyl cellulose), from plasma AUC by HPLC. The procedure:
Measurement of bioavailability in rat
SD Male rats of 6 weeks old (5 rats a group) were fasted overnight. The test compound was then administered to each of the rats at 3 mg/kg intravenously after dissolved in physiological saline and orally after suspended in 0.5% carboxymethyl cellulose, respectively. After administration, blood was collected periodically. From the blood so collected, plasma was separated by centrifugation. The test compound in the plasma was determined by high-performance liquid chromatography and based on it, areas under concentration (AUC) in intravenous administration and oral administration were found respectively. Bioavailability (BA) of the test compound for the rats was calculated in accordance with the following equation.

As for `CCc1nn(Cc2ccc(-c3ccccc3-c3nn[nH]n3)cc2)c(=NC(=O)C2=C(C(=O)O)CCC2)s1` [Control 2Na salt, reference compound], the “Rate of decrease in blood pressure” value in series [1] (0.3 mg/kg) stood at 12.9%.
As for `CCc1nn(Cc2ccc(-c3ccccc3-c3nnn[nH]3)cc2)c(=NC(=O)C2=C(C(=O)O)CCC2)s1` [Compound (2), 2-[[5-Ethyl-3-[2'-(1H-tetrazol-5-yl)biphenyl-4-yl]methyl-1,3,4-thiadiazolin-2-ylidene]aminocarbonyl]-1-cyclopentenecarboxylic acid], the “Rate of decrease in blood pressure” value in series [1] is listed as 10.8%. In addition, in series [2], the “Inhibition of blood pressure increase (%)” value is 54.2%. Besides, the “BA (%)” value in series [3] is recorded as 12.0%.
Turning to `CCc1nn(Cc2ccc(-c3ccccc3-c3nnn[nH]3)cc2)c(=NC(=O)C2=C(C(=O)O)CCC2)s1` [Compound A, dipotassium 2-[[5-ethyl-3-[2'-(1H-tetrazol-5-yl)biphenyl-4-yl]methyl-1,3,4-thiadiazolin-2-ylidene]aminocarbonyl]-1-cyclopentenecarboxylate], in series [1] (0.3 mg/kg), the “Rate of decrease in blood pressure” value is given as 23.0%. For the same compound, the “Inhibition of blood pressure increase (%)” value in series [2] is given as 84.6%. Also, in series [3], the “BA (%)” value came out at 42.8%.
Turning to `CCc1nn(Cc2ccc(-c3ccccc3-c3nnn[nH]3)cc2)c(=NC(=O)C2=C(C(=O)[O-])CCC2)s1.[K+]` [Compound B, monopotassium 2-[[5-ethyl-3-[2' -(1H-tetrazol-5-yl)biphenyl-4-yl]methyl-1,3,4-thiadiazolin-2-ylidene]aminocarbonyl]-1-cyclopentenecarboxylate], the “Rate of decrease in blood pressure” value in series [1] turned out to be 19.8%.
